Like-named read-outs stand apart in the source and are kept apart here.
Assays:
6xHis-oMLE [1] = target: T1, 6xHis-oMLE (Oenococcus oeni, UniProt Q48796); format: biochemical
T1 construct: gene mleA

GST-CBU1241 = target: T2, GST-CBU1241 (Coxiella burnetii, UniProt Q83C87); settings: substrate inhibition constant (KSi); 0.5 mM NADH, PBS pH 7.4
T2 construct: gene mdh

6xHis-oMLE [2] = target: T1, 6xHis-oMLE; format: biochemical; remark: listed apart in the source
6xHis-CBU0823 = target: T3, 6xHis-CBU0823 (Coxiella burnetii, UniProt Q83DB5); settings: substrate inhibition constant (KSi), 1 mM MnCl2, PBS pH 7.4
T3 construct: gene sfcA
T3 sequence (Q83DB5 1-565 limits assumed): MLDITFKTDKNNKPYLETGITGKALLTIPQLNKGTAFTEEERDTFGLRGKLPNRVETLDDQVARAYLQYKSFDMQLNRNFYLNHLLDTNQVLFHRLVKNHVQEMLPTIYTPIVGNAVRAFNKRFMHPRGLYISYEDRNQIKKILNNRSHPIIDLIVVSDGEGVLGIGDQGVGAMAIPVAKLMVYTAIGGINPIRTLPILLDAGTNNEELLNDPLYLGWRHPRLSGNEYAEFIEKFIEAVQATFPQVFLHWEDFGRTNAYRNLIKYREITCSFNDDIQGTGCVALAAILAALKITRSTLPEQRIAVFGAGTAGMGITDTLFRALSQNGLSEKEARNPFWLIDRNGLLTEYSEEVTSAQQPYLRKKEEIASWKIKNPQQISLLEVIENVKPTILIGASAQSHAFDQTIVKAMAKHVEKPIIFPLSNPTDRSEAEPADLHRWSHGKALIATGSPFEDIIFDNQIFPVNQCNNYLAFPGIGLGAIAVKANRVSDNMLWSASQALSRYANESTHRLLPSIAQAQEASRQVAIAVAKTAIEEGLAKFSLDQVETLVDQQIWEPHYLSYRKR

T1 sequence (Q48796 whole entry): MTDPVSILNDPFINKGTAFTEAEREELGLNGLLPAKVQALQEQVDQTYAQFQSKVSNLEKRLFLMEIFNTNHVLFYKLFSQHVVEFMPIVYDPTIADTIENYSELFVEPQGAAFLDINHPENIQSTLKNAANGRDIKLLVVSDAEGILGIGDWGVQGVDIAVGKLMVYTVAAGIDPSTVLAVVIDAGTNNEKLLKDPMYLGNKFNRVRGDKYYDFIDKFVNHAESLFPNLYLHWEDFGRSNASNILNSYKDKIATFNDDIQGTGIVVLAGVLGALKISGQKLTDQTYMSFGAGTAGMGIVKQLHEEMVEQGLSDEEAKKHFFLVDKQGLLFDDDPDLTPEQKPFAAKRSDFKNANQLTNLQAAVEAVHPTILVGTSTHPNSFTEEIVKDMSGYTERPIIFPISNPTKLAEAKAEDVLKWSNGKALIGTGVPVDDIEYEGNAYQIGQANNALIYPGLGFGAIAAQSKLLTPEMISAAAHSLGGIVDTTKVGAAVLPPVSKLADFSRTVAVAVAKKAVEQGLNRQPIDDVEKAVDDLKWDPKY
T2 sequence (Q83C87 whole entry, looked up): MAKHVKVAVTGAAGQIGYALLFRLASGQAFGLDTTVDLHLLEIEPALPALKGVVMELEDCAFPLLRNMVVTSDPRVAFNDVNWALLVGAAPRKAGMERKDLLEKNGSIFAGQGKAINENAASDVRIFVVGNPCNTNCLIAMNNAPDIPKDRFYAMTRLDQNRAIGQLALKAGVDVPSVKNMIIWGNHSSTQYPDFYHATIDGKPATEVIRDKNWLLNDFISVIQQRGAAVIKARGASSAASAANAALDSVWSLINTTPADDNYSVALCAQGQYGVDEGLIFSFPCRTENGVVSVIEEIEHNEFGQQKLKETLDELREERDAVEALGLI

O=C(O)CC(=O)C(=O)O [oxaloacetate]
NADH oxidation at 340 nm (6xHis-oMLE [1]): the observed reduction of OAA indicating MDH activity was not detected in the previous characterisation
Ki (GST-CBU1241): 1.25 (95% CI -0.85–3.39) mM

O=C(O)C[C@H](O)C(=O)O [malate]
GC-MS detection of lactate and pyruvate (6xHis-oMLE [2]): 6xHis-oMLE could generate amounts of lactate and pyruvate significantly above baseline
Ki (6xHis-CBU0823; NAD+ 2.5 mM (Fig 6 legend: 5 mM)): 10.86 (95% CI -7.31–29.05) mM

NC(=O)c1ccc[n+]([C@@H]2O[C@H](COP(=O)(O)OP(=O)(O)OC[C@H]3O[C@@H](n4cnc5c(N)ncnc54)[C@H](O)[C@@H]3O)[C@@H](O)[C@H]2O)c1 [NAD^+]
Ki (6xHis-CBU0823; 3 mM malate, printed as NADH, but b28, Fig 6B and S3F show varied NAD+): 6.30 (95% CI 0.27–12.33) mM
